# Key:
# Type in all cases: in vivo
# Veronica persica = test: Examples 6-8 herbicidal effect: VERPE; conditions: 7 DAA
# Solanum nigrum = test: Examples 6-8 herbicidal effect: SOLNI; conditions: 7 DAA
# Geranium dissectum = test: Examples 6-8 herbicidal effect: GERDI; conditions: 7 DAA
# Matricaria chamomilla = test: Examples 6-8 herbicidal effect: MATCH; conditions: 7 DAA
# Echinochloa crus-galli = test: Examples 6-8 herbicidal effect: ECHCG; conditions: 7 DAA
# Poa annua = test: Examples 6-8 herbicidal effect: POAAN; conditions: 7 DAA
# Chenopodium album [1] = test: Examples 6-8 herbicidal effect: CHEAL; conditions: 7 DAA
# Digitaria sanguinalis = test: Examples 6-8 herbicidal effect: DIGSA; conditions: 7 DAA
# Setaria verticillata = test: Examples 6-8 herbicidal effect: SETVE; conditions: 7 DAA
# Amaranthus retroflexus = test: Field trial post-emergence in maize: AMARE; conditions: 13-14 DAA; # = 1; g a.c./ha: PYR 450, TOP 12.4, PYR + TOP 450 + 12.4
# Procedure: (§1) Herbicidal activity of herbicide compositions according to the first aspect of the present invention with regard to different types of unwanted vegetation was determined during trials performed on test fields (field trials). Individual compositions comprising pyridate and individual compositions comprising a defined 4-HPPD inhibitor are compared with a herbicide composition according to the invention comprising both pyridate and a defined 4-HPPD inhibitor. The expected activity of the combination of the active compounds pyridate and a defined 4-HPPD inhibitor is calculated according to above mentioned calculation method by Colby, in order to evaluate a synergistic effect between pyridate and a defined 4-HPPD inhibitor.
# (§2) Herbicidal activity was determined by applying herbicide compositions on emerged unwanted vegetation on fields where maize was cultivated. Pyridate and a defined 4-HPPD inhibitor were applied as a tank mixture by mixing these active compounds prior to use in a spray tank. The corresponding mixture was in the form of a spray liquor. Besides, spray liquors of individual compositions comprising pyridate and of individual compositions comprising a defined 4-HPPD inhibitor were used. Test plants of unwanted vegetation with a growth stage corresponding to BBCH 10-18 (according to the extended BBCH-scale) were sprayed with the active compound preparations such that particular desired amounts of active compounds are applied per unit area. Spray liquor was diluted with water to arrive at an application volume of 50 to 450 L/ha. At a specified number of days after application (DAA), the degree of damage to the unwanted vegetation is rated in % of plants of unwanted vegetation that were killed, which was assessed by visually controlling the plants.
# [2] = system: Brassica rapa Canola cultivars; test: Field trial post-emergence in maize: BRSRC; conditions: 13-14 DAA; # = 1; g a.c./ha: PYR 450, TOP 12.4, PYR + TOP 450 + 12.4
# Procedure: as §1, §2
# Chenopodium album [3] = test: Field trial post-emergence in maize: CHEAL; conditions: 13-14 DAA, # = 1
# Procedure: as §1, §2
# Sinapis arvensis = test: Field trial post-emergence in maize: SINAR; conditions: 13-14 DAA; # = 1; g a.c./ha: PYR 450, TOP 12.4, PYR + TOP 450 + 12.4
# Procedure: as §1
# (§3) Herbicidal activity was determined by applying herbicide compositions on emerged unwanted vegetation on fields where maize was cultivated. Pyridate and a defined 4-HPPD inhibitor were applied as a tank mixture by mixing these active compounds prior to use in a spray tank. The corresponding mixture was in the form of a spray liquor. […] At a specified number of days after application (DAA), the degree of damage to the unwanted vegetation is rated in % of plants of unwanted vegetation that were killed, which was assessed by visually controlling the plants.
# Bassia scoparia = test: Field trial post-emergence in maize: KCHSC; conditions: 13-14 DAA; # = 2; g a.c./ha: PYR 450, TEM 38, PYR + TEM 450 + 38
# Procedure: as §1, §3
# Lamium amplexicaule = test: Example 6 herbicidal effect: LAMAM; conditions: 7 DAA
# [4] = g a.c./ha: SMO 800, PYR + NIC 300 + 30
# [5] = g a.c./ha: PYR 10, TEM 22, PYR + TEM 10 + 100
# [6] = g a.c./ha: PYR 300, TEM 100, PYR + TEM 300 + 100
# [7] = g a.c./ha: PYR 900, TEM 44, PYR + TEM 900 + 44
# [8] = g a.c./ha: PYR 300, SCT 300, PYR + SCT 300 + 300
# [9] = g a.c./ha: PYR 450, SCT 450, PYR + SCT 300 + 450
structure (smiles),measurement,setting,value
"CCc1cccc(C)c1N(C(=O)CCl)[C@@H](C)COC [SMO, S-metolachlor]",herbicidal effect (h.e.),Veronica persica; [4],5%
same,herbicidal effect (h.e.),Solanum nigrum; [4],3%
same,herbicidal effect (h.e.),Geranium dissectum; [4],0%
same,herbicidal effect (h.e.),Matricaria chamomilla; [4],0%
same,herbicidal effect (h.e.),Echinochloa crus-galli; [4],0%
same,herbicidal effect (h.e.),Poa annua; [4],0%
same,herbicidal effect (h.e.),Chenopodium album [1]; [4],1%
same,herbicidal effect (h.e.),Digitaria sanguinalis; [4],0%
same,herbicidal effect (h.e.),Setaria verticillata; [4],0%
"COc1cc(OC)nc(NC(=O)NS(=O)(=O)c2ncccc2C(=O)N(C)C)n1 [NIC, nicosulfuron]",herbicidal effect (h.e.),Veronica persica; NIC 30 g a.c./ha,7%
same,herbicidal effect (h.e.),Solanum nigrum; NIC 30 g a.c./ha,17%
same,herbicidal effect (h.e.),Geranium dissectum; NIC 30 g a.c./ha,33%
same,herbicidal effect (h.e.),Matricaria chamomilla; NIC 30 g a.c./ha,6%
same,herbicidal effect (h.e.),Echinochloa crus-galli; NIC 30 g a.c./ha,38%
same,herbicidal effect (h.e.),Poa annua; NIC 30 g a.c./ha,75%
same,herbicidal effect (h.e.),Chenopodium album [1]; NIC 30 g a.c./ha,24%
same,herbicidal effect (h.e.),Digitaria sanguinalis; NIC 30 g a.c./ha,32%
same,herbicidal effect (h.e.),Setaria verticillata; NIC 30 g a.c./ha,37%
"Cc1c(C(=O)c2c[nH]n(C)c2=O)ccc(S(C)(=O)=O)c1C1=NOCC1 [TOP, 4-[3-(4,5-dihydro-1,2-oxazol-3-yl)-2-methyl-4-methylsulfonylbenzoyl]-2-methyl-1H-pyrazol-3-one]",herbicidal effect (h.e.),Amaranthus retroflexus,18%
same,herbicidal effect (h.e.),[2],50%
same,herbicidal effect (h.e.),"Chenopodium album [3]; g a.c./ha: PYR 450, TOP 12.4, PYR + TOP 450 + 12.4",1%
same,herbicidal effect (h.e.),Sinapis arvensis,50%
"CS(=O)(=O)c1ccc(C(=O)C2C(=O)CCCC2=O)c(Cl)c1COCC(F)(F)F [TEM, 2-[2-chloro-4-methylsulfonyl-3-(2,2,2-trifluoroethoxymethyl)benzoyl]cyclohexane-1,3-dione]",herbicidal effect (h.e.),"Chenopodium album [3]; g a.c./ha: PYR 450, TEM 38, PYR + TEM 450 + 38",0%
same,herbicidal effect (h.e.),Bassia scoparia,40%
same,herbicidal effect (h.e.),Veronica persica; [5],8%
same,herbicidal effect (h.e.),Veronica persica; [6],53%
same,herbicidal effect (h.e.),Veronica persica; [7],53%
same,herbicidal effect (h.e.),Solanum nigrum; [5],40%
same,herbicidal effect (h.e.),Solanum nigrum; [6],80%
same,herbicidal effect (h.e.),Solanum nigrum; [7],85%
same,herbicidal effect (h.e.),Geranium dissectum; [5],8%
same,herbicidal effect (h.e.),Geranium dissectum; [6],33%
same,herbicidal effect (h.e.),Geranium dissectum; [7],20%
same,herbicidal effect (h.e.),Matricaria chamomilla; [5],15%
same,herbicidal effect (h.e.),Matricaria chamomilla; [6],100%
same,herbicidal effect (h.e.),Matricaria chamomilla; [7],70%
same,herbicidal effect (h.e.),Echinochloa crus-galli; [5],83%
same,herbicidal effect (h.e.),Echinochloa crus-galli; [6],85%
same,herbicidal effect (h.e.),Echinochloa crus-galli; [7],95%
same,herbicidal effect (h.e.),Poa annua; [5],10%
same,herbicidal effect (h.e.),Poa annua; [6],32%
same,herbicidal effect (h.e.),Poa annua; [7],13%
same,herbicidal effect (h.e.),Chenopodium album [1]; [5],68%
same,herbicidal effect (h.e.),Chenopodium album [1]; [6],78%
same,herbicidal effect (h.e.),Chenopodium album [1]; [7],96%
same,herbicidal effect (h.e.),Lamium amplexicaule; [5],25%
same,herbicidal effect (h.e.),Lamium amplexicaule; [6],40%
same,herbicidal effect (h.e.),Lamium amplexicaule; [7],100%
same,herbicidal effect (h.e.),Digitaria sanguinalis; [5],59%
same,herbicidal effect (h.e.),Digitaria sanguinalis; [6],99%
same,herbicidal effect (h.e.),Digitaria sanguinalis; [7],95%
same,herbicidal effect (h.e.),Setaria verticillata; [5],0%
same,herbicidal effect (h.e.),Setaria verticillata; [6],100%
same,herbicidal effect (h.e.),Setaria verticillata; [7],18%
"CS(=O)(=O)c1ccc(C(=O)C2C(=O)CCCC2=O)c(Cl)c1 [SCT, 2-[2-Chloro-4-(methylsulfonyl)benzoyl]cyclohexane-1,3-dione]",herbicidal effect (h.e.),Veronica persica; [8],83%
same,herbicidal effect (h.e.),Veronica persica; [9],80%
same,herbicidal effect (h.e.),Solanum nigrum; [8],53%
same,herbicidal effect (h.e.),Solanum nigrum; [9],53%
same,herbicidal effect (h.e.),Geranium dissectum; [8],28%
same,herbicidal effect (h.e.),Geranium dissectum; [9],50%
same,herbicidal effect (h.e.),Matricaria chamomilla; [8],28%
same,herbicidal effect (h.e.),Matricaria chamomilla; [9],25%
same,herbicidal effect (h.e.),Echinochloa crus-galli; [8],58%
same,herbicidal effect (h.e.),Echinochloa crus-galli; [9],60%
same,herbicidal effect (h.e.),Poa annua; [8],3%
same,herbicidal effect (h.e.),Poa annua; [9],3%
same,herbicidal effect (h.e.),Chenopodium album [1]; [8],30%
same,herbicidal effect (h.e.),Chenopodium album [1]; [9],45%
same,herbicidal effect (h.e.),Digitaria sanguinalis; [8],60%
same,herbicidal effect (h.e.),Digitaria sanguinalis; [9],53%
same,herbicidal effect (h.e.),Setaria verticillata; [8],2%
same,herbicidal effect (h.e.),Setaria verticillata; [9],2%

# Source: patent US12396459B2, “Synergistically effective herbicide composition comprising pyridate and at least one defined 4-HPPD inhibitor” (BELCHIM CROP PROTECTION NV, priority 2018, dated 2025)
